The values that follow are results of earlier work, collected in patent US12708634B2, “Psilocybin derived compositions and methods using same” (1242753 Ontario Inc., priority 2021, dated 2026).

Data set [1] concerns patients with advanced-stage cancer. Particulars: oral dose 0.2 mg/kg.
The test system of data set [2] is patients with treatment-resistant major depression. To be noted: two oral doses (10 mg followed by 25 mg a week later).

In the case of `CN(C)CCc1c[nH]c2cccc(OP(=O)(O)O)c12` [psilocybin], the adverse events entry in data set [1] and in data set [2] was “no clinically significant adverse events” throughout.
